In ChEMBL document CHEMBL4699602, “Stapled and Xenopus Glucagon-Like Peptide 1 (GLP-1)-Based Dual GLP-1/Gastrin Receptor Agonists with Improved Metabolic Benefits in Rodent Models of Obesity and Diabetes” (J Med Chem, 2020):
Where a SMILES comes first, the peptide text is derived from it. [ ]: non-standard residue; d: D form. ξ: configuration not given here. αMeH = C[C@](N)(Cc1c[nH]cn1)C(=O)O; Thr(3ξ) = CC(O)[C@H](N)C(=O)O; Aib = CC(C)(N)C(=O)O

Columns and labels:
[1] = target: T1, Glucagon-like peptide 1 receptor (Homo sapiens, UniProt P43220); assay: Agonist activity at human GLP-1R expressed in HEK293 cells assessed as stimulation of cAMP accumulation incubated for 20 mins in presence of 4.4% HSA; format: functional, cell-based
T1 sequence (P43220 whole entry): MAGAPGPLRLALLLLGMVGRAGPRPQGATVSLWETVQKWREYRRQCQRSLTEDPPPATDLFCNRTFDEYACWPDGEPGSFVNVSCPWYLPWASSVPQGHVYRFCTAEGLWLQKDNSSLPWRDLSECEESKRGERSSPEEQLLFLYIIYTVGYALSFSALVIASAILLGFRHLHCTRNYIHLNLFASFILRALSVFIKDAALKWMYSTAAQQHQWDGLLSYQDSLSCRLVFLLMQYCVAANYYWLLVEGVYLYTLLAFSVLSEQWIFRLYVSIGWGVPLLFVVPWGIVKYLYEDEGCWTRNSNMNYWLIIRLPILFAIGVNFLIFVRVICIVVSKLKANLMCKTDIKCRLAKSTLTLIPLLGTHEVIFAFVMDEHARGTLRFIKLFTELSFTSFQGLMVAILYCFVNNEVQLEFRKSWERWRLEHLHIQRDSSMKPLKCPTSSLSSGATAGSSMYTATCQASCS

[2] = target: T1, Glucagon-like peptide 1 receptor; assay: Ratio of EC50 for agonist activity at human GLP-1R expressed in HEK293 cells in presence of 4.4% HSA to EC50 for agonist activity at human GLP-1R expressed in HEK293 cells in presence of 0% HSA; format: cell-based
[3] = target: T1, Glucagon-like peptide 1 receptor; assay: Agonist activity at human GLP-1R expressed in HEK293 cells assessed as stimulation of cAMP accumulation incubated for 20 mins in presence of 0% HSA; format: functional, cell-based
[4] = target: T1, Glucagon-like peptide 1 receptor; assay: Agonist activity at human GLP-1R expressed in HEK293 cells assessed as stimulation of cAMP accumulation incubated for 20 mins; format: functional, cell-based

Molecule	EC50 [4] [pM]	EC50 [1] [pM]	Ratio EC50 [2]	EC50 [3] [pM]
CC[C@H](C)[C@H](NC(=O)[C@H](CC(C)C)NC(=O)[C@H](Cc1c[nH]c2ccccc12)NC(=O)[C@H](CCC(=O)O)NC(=O)[C@@H](NC(=O)[C@H](Cc1ccccc1)NC(=O)[C@@H]1CSC2CC(=O)N(CCC(=O)NC(C(=O)NCCCCCCNC(=O)COCCOCCNC(=O)CCC(NC(=O)CCCCCCCCCCCCCCCCC(=O)O)C(=O)O)CCCCNC(=O)CCN3C(=O)CC(SC[C@H](NC(=O)[C@H](Cc4ccc(O)cc4)NC(=O)[C@H](CCC(=O)O)NC(=O)[C@@H](NC(=O)[C@@H](NC(=O)[C@H](CC(=O)O)NC(=O)[C@H](CC(N)=O)NC(=O)[C@@H](NC(=O)[C@H](Cc4ccc(O)cc4)NC(=O)[C@@H](NC(=O)CNC(=O)[C@H](CCC(=O)O)NC(=O)C(C)(C)NC(=O)[C@@H](N)Cc4c[nH]cn4)[C@@H](C)O)[C@@H](C)O)C(C)C)[C@@H](C)O)C(=O)N[C@@H](CCC(=O)O)C(=O)N[C@@H](CCC(=O)O)C(=O)N[C@@H](CCC(=O)O)C(=O)N[C@@H](C)C(=O)N[C@@H](C)C(=O)N[C@@H](CCCCN)C(=O)N1)C3=O)C2=O)[C@@H](C)CC)C(=O)N[C@@H](CCCCN)C(=O)NCC(=O)N[C@@H](CCCCN)C(=O)N1CCC[C@H]1C(=O)N[C@@H](CO)C(=O)N[C@@H](CO)C(=O)NCC(=O)N[C@@H](C)C(=O)N1CCC[C@H]1C(=O)N1CCC[C@H]1C(=O)N1CCC[C@H]1C(=O)N[C@@H](CO)C(N)=O (stereo partly drawn) (HELM PEPTIDE1{H.[Aib].E.G.T.Y.T.N.D.V.T.E.Y.C.E.E.E.A.A.K.C.F.I.E.W.L.I.K.G.K.P.S.S.G.A.P.P.P.S.[am]}|CHEM1{[O=C(O)CCCCCCCCCCCCCCCCC(=O)NC(CCC(=O)NCCOCCOCC(=O)NCCCCCCNC(=O)C(CCCCNC(=O)CCN1C(=O)CC([*:1])C1=O)NC(=O)CCN1C(=O)CC([*:2])C1=O)C(=O)O]}$PEPTIDE1,CHEM1,14:R3-1:R1|PEPTIDE1,CHEM1,21:R3-1:R2$$$V2.0)		5900	59	100
CC[C@H](C)[C@H](NC(=O)[C@H](CC(C)C)NC(=O)[C@H](Cc1c[nH]c2ccccc12)NC(=O)[C@H](CCC(=O)O)NC(=O)[C@@H](NC(=O)[C@H](Cc1ccccc1)NC(=O)[C@@H]1CSC2CC(=O)N(CCC(=O)NC(C(=O)NCCCCCCNC(=O)COCCOCCNC(=O)CCCCCCCCCCCCCCCCC(=O)O)CCCCNC(=O)CCN3C(=O)CC(SC[C@H](NC(=O)[C@H](Cc4ccc(O)cc4)NC(=O)[C@H](CCC(=O)O)NC(=O)[C@@H](NC(=O)[C@@H](NC(=O)[C@H](CC(=O)O)NC(=O)[C@H](CC(N)=O)NC(=O)[C@@H](NC(=O)[C@H](Cc4ccc(O)cc4)NC(=O)[C@@H](NC(=O)CNC(=O)[C@H](CCC(=O)O)NC(=O)C(C)(C)NC(=O)[C@@H](N)Cc4c[nH]cn4)[C@@H](C)O)[C@@H](C)O)C(C)C)[C@@H](C)O)C(=O)N[C@@H](CCC(=O)O)C(=O)N[C@@H](CCC(=O)O)C(=O)N[C@@H](CCC(=O)O)C(=O)N[C@@H](C)C(=O)N[C@@H](C)C(=O)N[C@@H](CCCCN)C(=O)N1)C3=O)C2=O)[C@@H](C)CC)C(=O)N[C@@H](CCCCN)C(=O)NCC(=O)N[C@@H](CCCCN)C(=O)N1CCC[C@H]1C(=O)N[C@@H](CO)C(=O)N[C@@H](CO)C(=O)NCC(=O)N[C@@H](C)C(=O)N1CCC[C@H]1C(=O)N1CCC[C@H]1C(=O)N1CCC[C@H]1C(=O)N[C@@H](CO)C(N)=O (stereo partly drawn) (HELM PEPTIDE1{H.[Aib].E.G.T.Y.T.N.D.V.T.E.Y.C.E.E.E.A.A.K.C.F.I.E.W.L.I.K.G.K.P.S.S.G.A.P.P.P.S.[am]}|CHEM1{[O=C(O)CCCCCCCCCCCCCCCCC(=O)NCCOCCOCC(=O)NCCCCCCNC(=O)C(CCCCNC(=O)CCN1C(=O)CC([*:1])C1=O)NC(=O)CCN1C(=O)CC([*:2])C1=O]}$PEPTIDE1,CHEM1,14:R3-1:R1|PEPTIDE1,CHEM1,21:R3-1:R2$$$V2.0)		1300	11.8	110
CCCCCCCCCCCCCCCC(=O)NCCCCCCNC(=O)C1CCCCNC(=O)CCN2C(=O)CC(SC[C@H](NC(=O)[C@H](Cc3ccc(O)cc3)NC(=O)[C@H](CCC(=O)O)NC(=O)[C@@H](NC(=O)[C@@H](NC(=O)[C@H](CC(=O)O)NC(=O)[C@H](CC(N)=O)NC(=O)[C@@H](NC(=O)[C@H](Cc3ccc(O)cc3)NC(=O)[C@@H](NC(=O)CNC(=O)[C@H](CCC(=O)O)NC(=O)C(C)(C)NC(=O)[C@@H](N)Cc3c[nH]cn3)[C@@H](C)O)[C@@H](C)O)C(C)C)[C@@H](C)O)C(=O)N[C@@H](CCC(=O)O)C(=O)N[C@@H](CCC(=O)O)C(=O)N[C@@H](CCC(=O)O)C(=O)N[C@@H](C)C(=O)N[C@@H](C)C(=O)N[C@@H](CCCCN)C(=O)N[C@H](C(=O)N[C@@H](Cc3ccccc3)C(=O)N[C@H](C(=O)N[C@@H](CCC(=O)O)C(=O)N[C@@H](Cc3c[nH]c4ccccc34)C(=O)N[C@@H](CC(C)C)C(=O)N[C@H](C(=O)N[C@@H](CCCCN)C(=O)NCC(=O)N[C@@H](CCCCN)C(N)=O)[C@@H](C)CC)[C@@H](C)CC)CSC3CC(=O)N(CCC(=O)N1)C3=O)C2=O (stereo partly drawn) (HELM PEPTIDE1{H.[Aib].E.G.T.Y.T.N.D.V.T.E.Y.C.E.E.E.A.A.K.C.F.I.E.W.L.I.K.G.K.[am]}|CHEM1{[CCCCCCCCCCCCCCCC(=O)NCCCCCCNC(=O)C(CCCCNC(=O)CCN1C(=O)CC([*:1])C1=O)NC(=O)CCN1C(=O)CC([*:2])C1=O]}$PEPTIDE1,CHEM1,14:R3-1:R1|PEPTIDE1,CHEM1,21:R3-1:R2$$$V2.0)		1800	18.4	98
H-H[Aib]EGTYTNDVTEYLCEEAAKECIEWLIKGKPSSGAPPSKKKKKK-NH2 (cysteines drawn unpaired)	170			
H-H[Aib]EGTYTNDVTEYLEEEAACEFIEWLCKGKPSSGAPPSKKKKKK-NH2 (cysteines drawn unpaired)	230			
H-H[Aib]EG[Thr(3ξ)]YTNDVTEYLEEEAAKEFCEWLIKGCPSSGAPPSKKKKKK-NH2 (cysteines drawn unpaired)	230			

Further molecules by falling EC50 [4], results first:

EC50 [4] [pM]	Molecule	EC50 [1] [pM]	Ratio EC50 [2]	EC50 [3] [pM]
150	H-H[Aib]EGTYTNDVTEYLEEEACKEFIEWCIKGKPSSGAPPSKKKKKK-NH2 (cysteines drawn unpaired)			
130	H-H[Aib]EGTYTNDVTEYLEEEAAKECIEWLIKCKPSSGAPPSKKKKKK-NH2 (cysteines drawn unpaired)			
120	H-H[Aib]EGTYTNDVTEYLECEAAKEFCEWLIKGKPSSGAPPSKKKKKK-NH2 (cysteines drawn unpaired)			
110	H-[αMeH]AEGTYTNDVTCYLEEEACKEFIEWLIKGKPSSGAPPSKKKKKK-NH2 (cysteines drawn unpaired)			
100	H-H[Aib]EGTYTNDVTEYLEEECAKEFIECLIKGKPSSGAPPSKKKKKK-NH2 (cysteines drawn unpaired)			
73	H-H[Aib]EGTY[Thr(3ξ)]NDV[Thr(3ξ)]EYLEECAAKEFICWLIKGKPSSGAPPSKKKKKK-NH2 (cysteines drawn unpaired)			
